PubChem BioAssay (NCI)
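Following 48 hours of exposure in 96-well plates, responses at five concentrations were used to interpolate endpoints linearly. TGI: total growth inhibition.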

Key:
Assay in all cases: DTP human tumour cell line panel, 48 h
[1] = system: HT29 colon
[2] = system: HOP-92 NSCLC
[3] = system: HCC-2998 colon
[4] = system: NCI-H226 lung
[5] = system: M14 melanoma
[6] = system: KM12 colon
[7] = system: UO-31 renal
[8] = system: HCT-116 colon
[9] = system: U251 CNS
[10] = system: A549 NSCLC
[11] = system: A498 renal
[12] = system: IGROV1 ovarian
[13] = system: NCI/ADR-RES ovarian
[14] = system: SF-539 CNS
[15] = system: NCI-H522 lung
[16] = system: HL-60(TB) leukemia
[17] = system: CAKI-1 renal
[18] = system: HS 578T breast
[19] = system: TK-10 renal
[20] = system: SN12C renal
[21] = system: COLO 205 colon
[22] = system: UACC-62 melanoma
[23] = system: RXF 393 renal
[24] = system: OVCAR-5 ovarian
[25] = system: PC-3 prostate
[26] = system: SK-MEL-5 melanoma
[27] = system: UACC-257 melanoma
[28] = system: MDA-MB-435
[29] = system: EKVX NSCLC
[30] = system: CCRF-CEM leukemia
[31] = system: K-562 leukemia
[32] = system: MOLT-4 leukemia
[33] = system: MDA-MB-231 breast
[34] = system: SR leukemia
[35] = system: DU-145 prostate
[36] = system: SF-268 CNS
[37] = system: OVCAR-8 ovarian
[38] = system: SK-OV-3 ovarian
[39] = system: 786-0 renal
[40] = system: ACHN renal
[41] = system: SNB-19 CNS
[42] = system: SK-MEL-2 melanoma
[43] = system: NCI-H23 lung
[44] = system: LOX IMVI melanoma
[45] = system: SK-MEL-28 melanoma
[46] = system: MDA-N
[47] = system: SW-620 colon
[48] = system: HOP-62 NSCLC
[49] = system: HCT-15 colon
[50] = system: T-47D breast
[51] = system: SF-295 CNS
[52] = system: MALME-3M melanoma
[53] = system: SNB-75 CNS
[54] = system: MCF7 breast
[55] = system: RPMI-8226 leukemia

Measured: TGI

N#CC12CC(C=O)=C(N)C1(C#N)CC(C=O)=C2N (stereo not given)
76.3 µM: [42]
80 µM: [3]
38.5 µM: [49]
54.1 µM: [26]
> 100 µM: all other assays above
